What was measured:
[1] = Inhibition of PI3Kalpha in human HCT116 cells assessed as cell growth inhibition after 24 hrs by MTT assay
[2] = Inhibition of PI3Kalpha H1047R mutant in human HCT116 cells assessed as cell growth inhibition after 24 hrs by MTT assay

IC50 [1] [µM]	IC50 [2] [µM]	SMILES
2660	2660	O=C(OC(C(=O)c1ccccc1)c1ccccc1)c1ccccc1 (stereo not drawn)
880	880	O=C(OC(C(=O)c1ccccc1)c1ccccc1)c1ccc([N+](=O)[O-])cc1 (stereo not drawn)
730	730	O=C(OC(C(=O)c1ccccc1)c1ccccc1)c1ccc(Cl)cc1 (stereo not drawn)
1170	1170	COc1ccc(C(=O)C(O)c2ccc(OC)cc2)cc1 (stereo not drawn) [2-hydroxy-1,2-bis(4-methoxyphenyl)ethan-1-one]
1290	1290	O=C(OC(C(=O)c1ccccc1)c1ccccc1)c1ccc(F)cc1 (stereo not drawn)
910	910	O=C(OC(C(=O)c1ccccc1)c1ccccc1)c1ccccc1F (stereo not drawn)
2120	2120	O=C(c1ccccc1)C(O)c1ccccc1 (stereo not drawn)
2820	2820	COc1ccc(C(=O)C(OC(=O)c2ccc(F)cc2)c2ccc(OC)cc2)cc1 (stereo not drawn)
970	970	O=C(OC(C(=O)c1ccccc1)c1ccccc1)c1cccc(F)c1 (stereo not drawn)

Reference: BindingDB's records for doi:10.1016/j.bmcl.2015.06.011 (Al-Zaytoonah University of Jordan, 2015)
